These results are taken from ChEMBL document CHEMBL5465560, “Selectivity Literature for EUbOPEN Chemogenomic Library” (2024).

One assay addresses D(2) dopamine receptor (Homo sapiens, UniProt P14416). The experiment in a line: Selectivity interaction (Panel of kinases, GPCRs, ion channels and transporters (enzymatic assay)) EUB0000266bCl DRD2.
Assay [1] has as its system T1, Receptor-type tyrosine-protein kinase FLT3 (Homo sapiens), P36888 [N841I].
T1 sequence (whole entry): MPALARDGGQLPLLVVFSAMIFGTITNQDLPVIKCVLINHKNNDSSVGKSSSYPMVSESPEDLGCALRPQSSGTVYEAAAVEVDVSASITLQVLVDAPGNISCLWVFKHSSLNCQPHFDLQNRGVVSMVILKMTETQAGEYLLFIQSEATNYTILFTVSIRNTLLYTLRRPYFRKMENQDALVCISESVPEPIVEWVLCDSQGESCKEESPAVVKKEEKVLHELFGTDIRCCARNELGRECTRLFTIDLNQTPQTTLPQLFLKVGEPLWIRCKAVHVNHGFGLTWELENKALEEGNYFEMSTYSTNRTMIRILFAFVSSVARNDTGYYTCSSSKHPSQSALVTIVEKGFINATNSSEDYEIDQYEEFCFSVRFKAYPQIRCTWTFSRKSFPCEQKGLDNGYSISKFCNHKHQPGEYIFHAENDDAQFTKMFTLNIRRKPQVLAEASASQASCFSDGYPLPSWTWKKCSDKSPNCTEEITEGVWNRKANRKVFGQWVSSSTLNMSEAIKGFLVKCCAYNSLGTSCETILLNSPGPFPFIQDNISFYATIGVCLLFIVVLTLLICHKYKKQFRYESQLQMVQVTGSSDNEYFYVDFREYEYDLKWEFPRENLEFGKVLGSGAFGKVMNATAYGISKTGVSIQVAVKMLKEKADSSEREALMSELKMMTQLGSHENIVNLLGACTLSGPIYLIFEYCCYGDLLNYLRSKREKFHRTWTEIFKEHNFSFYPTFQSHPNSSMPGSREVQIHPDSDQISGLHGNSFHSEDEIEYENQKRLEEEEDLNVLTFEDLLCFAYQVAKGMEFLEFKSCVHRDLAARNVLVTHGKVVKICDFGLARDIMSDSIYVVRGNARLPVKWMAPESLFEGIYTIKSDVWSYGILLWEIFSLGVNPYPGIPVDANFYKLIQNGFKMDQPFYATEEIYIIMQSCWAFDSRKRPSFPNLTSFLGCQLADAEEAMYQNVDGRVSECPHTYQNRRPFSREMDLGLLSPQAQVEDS
The conditions noted are these: at 10 µM.

For assay [2], the target named is T2, Serine/threonine-protein kinase TAO3 (Homo sapiens) (UniProt Q9H2K8).
T2 sequence (whole entry): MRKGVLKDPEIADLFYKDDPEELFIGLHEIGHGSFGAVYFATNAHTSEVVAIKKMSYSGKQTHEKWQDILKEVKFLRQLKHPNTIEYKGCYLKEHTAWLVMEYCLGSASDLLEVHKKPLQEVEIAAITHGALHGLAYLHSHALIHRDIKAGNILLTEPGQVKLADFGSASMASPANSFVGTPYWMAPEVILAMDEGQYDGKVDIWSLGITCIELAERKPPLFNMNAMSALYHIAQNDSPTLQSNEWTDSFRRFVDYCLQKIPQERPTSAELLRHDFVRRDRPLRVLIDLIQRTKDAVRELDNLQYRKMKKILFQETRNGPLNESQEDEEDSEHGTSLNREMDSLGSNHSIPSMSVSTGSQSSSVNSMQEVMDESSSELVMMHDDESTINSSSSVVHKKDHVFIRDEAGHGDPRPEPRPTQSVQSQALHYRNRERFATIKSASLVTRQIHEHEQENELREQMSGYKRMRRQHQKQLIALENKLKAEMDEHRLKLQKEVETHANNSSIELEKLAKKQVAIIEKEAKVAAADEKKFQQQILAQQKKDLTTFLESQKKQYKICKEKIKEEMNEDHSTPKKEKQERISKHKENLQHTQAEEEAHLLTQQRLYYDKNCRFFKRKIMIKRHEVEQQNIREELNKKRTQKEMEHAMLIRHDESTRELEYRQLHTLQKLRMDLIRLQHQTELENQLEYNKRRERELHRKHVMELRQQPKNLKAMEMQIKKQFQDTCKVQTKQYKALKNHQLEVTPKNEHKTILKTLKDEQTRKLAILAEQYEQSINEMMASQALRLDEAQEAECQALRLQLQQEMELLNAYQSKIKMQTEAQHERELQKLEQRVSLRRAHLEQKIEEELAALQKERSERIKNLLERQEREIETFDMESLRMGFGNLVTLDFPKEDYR
The conditions noted are these: at 10 µM.

Assay [3] concerns the target cAMP-dependent protein kinase catalytic subunit gamma (Homo sapiens) (UniProt P22612). Kind of assay: Selectivity interaction (LanthaScreen Eu Kinase Binding Assay) EUB0001632a PRKACG. To be noted: at 10 µM.
Assay [4] addresses T3, Protein kinase C iota type (Homo sapiens) (UniProt P41743).
T3 sequence (whole entry): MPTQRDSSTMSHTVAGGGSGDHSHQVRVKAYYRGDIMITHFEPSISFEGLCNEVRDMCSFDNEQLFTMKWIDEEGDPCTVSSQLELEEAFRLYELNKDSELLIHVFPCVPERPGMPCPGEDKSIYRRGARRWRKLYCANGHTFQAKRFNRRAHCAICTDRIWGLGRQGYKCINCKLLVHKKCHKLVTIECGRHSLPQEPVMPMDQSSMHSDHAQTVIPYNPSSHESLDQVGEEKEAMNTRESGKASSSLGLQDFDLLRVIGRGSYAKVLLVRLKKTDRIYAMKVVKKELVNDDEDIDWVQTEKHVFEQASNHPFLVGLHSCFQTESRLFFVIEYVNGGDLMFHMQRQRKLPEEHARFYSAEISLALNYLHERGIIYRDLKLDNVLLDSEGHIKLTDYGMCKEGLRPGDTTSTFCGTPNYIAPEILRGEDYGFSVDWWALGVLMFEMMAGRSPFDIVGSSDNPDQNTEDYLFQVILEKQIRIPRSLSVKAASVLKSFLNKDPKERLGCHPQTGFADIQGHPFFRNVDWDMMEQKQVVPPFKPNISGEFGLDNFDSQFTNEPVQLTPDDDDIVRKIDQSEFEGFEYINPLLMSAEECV
The experiment in a line: Selectivity interaction (KinomeScan (DiscoverX)) EUB0000607a PRKCI. The conditions noted are these: at 10 µM.

The target of a further assay is Focal adhesion kinase 1 (Homo sapiens, UniProt Q05397). The experiment in a line: Selectivity interaction (KinomeScan (DiscoverX)) EUB0000607a PTK2. To be noted: at 10 µM.
Focal adhesion kinase 1, sequence (Q05397 2-1052 limits assumed): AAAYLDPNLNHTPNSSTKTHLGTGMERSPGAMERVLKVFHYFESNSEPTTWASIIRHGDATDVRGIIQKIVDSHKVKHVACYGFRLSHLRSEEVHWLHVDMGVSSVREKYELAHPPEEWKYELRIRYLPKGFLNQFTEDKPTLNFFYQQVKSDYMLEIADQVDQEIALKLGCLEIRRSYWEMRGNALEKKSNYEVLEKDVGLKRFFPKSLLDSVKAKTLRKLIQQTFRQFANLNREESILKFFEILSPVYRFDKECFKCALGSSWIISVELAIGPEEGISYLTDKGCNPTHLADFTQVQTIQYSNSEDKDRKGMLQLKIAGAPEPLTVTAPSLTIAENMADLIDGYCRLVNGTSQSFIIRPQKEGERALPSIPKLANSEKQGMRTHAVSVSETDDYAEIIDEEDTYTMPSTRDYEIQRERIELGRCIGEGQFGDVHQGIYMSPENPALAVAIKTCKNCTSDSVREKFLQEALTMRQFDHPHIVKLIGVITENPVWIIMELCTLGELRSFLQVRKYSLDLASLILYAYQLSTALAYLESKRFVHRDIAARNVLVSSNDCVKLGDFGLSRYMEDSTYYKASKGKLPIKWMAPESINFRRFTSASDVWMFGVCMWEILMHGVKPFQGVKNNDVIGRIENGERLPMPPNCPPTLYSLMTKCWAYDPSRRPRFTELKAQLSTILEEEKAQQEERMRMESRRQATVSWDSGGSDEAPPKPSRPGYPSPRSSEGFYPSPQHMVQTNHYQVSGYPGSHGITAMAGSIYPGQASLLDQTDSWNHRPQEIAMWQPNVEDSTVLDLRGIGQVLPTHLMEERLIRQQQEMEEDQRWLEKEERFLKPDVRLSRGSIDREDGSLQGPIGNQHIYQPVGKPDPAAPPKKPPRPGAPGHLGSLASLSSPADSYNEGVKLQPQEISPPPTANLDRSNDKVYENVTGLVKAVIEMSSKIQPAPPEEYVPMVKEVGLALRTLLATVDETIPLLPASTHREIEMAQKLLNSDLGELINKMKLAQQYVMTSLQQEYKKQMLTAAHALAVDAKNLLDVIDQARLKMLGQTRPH
The target of assay [5] is Mitogen-activated protein kinase kinase kinase 11 (Homo sapiens) (UniProt Q16584). The experiment in a line: Selectivity interaction (ActivX KiNativ screen (kinase selectivity in THP-1 cell lysates)) EUB0000639a MAP3K11. In kind it is subcellular. The conditions noted are these: lysate.
Mitogen-activated protein kinase kinase kinase 11 (Homo sapiens), sequence (Q16584 whole entry, looked up): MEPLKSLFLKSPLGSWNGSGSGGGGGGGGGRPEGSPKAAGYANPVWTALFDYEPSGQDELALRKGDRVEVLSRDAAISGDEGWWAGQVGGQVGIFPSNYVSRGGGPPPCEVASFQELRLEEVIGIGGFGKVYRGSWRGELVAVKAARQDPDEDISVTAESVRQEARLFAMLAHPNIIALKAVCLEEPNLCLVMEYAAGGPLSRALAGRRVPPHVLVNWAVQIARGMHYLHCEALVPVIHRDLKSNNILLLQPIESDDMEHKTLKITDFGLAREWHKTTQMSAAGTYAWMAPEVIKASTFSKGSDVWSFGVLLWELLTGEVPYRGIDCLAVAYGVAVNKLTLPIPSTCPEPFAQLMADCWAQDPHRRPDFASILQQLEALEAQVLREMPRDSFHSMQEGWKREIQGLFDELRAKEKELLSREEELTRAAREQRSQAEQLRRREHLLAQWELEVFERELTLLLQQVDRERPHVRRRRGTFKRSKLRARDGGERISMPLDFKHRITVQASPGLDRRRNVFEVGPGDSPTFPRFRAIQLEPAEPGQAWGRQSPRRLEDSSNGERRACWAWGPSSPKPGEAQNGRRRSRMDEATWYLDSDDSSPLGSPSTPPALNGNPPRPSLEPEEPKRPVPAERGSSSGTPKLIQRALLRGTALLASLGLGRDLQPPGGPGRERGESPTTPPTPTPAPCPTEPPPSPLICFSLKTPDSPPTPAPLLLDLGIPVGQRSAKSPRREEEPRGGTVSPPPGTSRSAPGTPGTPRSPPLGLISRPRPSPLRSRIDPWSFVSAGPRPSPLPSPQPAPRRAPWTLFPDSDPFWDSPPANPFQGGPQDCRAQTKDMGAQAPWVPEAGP
Assay [6] concerns the target Proto-oncogene tyrosine-protein kinase Src (Homo sapiens, UniProt P12931). Kind of assay: Selectivity interaction (KinomeScan (DiscoverX)) EUB0000618a SRC. The conditions noted are these: at 10 µM.

Bounds are passed on as bounds.

D(2) dopamine receptor, sequence (P14416 whole entry): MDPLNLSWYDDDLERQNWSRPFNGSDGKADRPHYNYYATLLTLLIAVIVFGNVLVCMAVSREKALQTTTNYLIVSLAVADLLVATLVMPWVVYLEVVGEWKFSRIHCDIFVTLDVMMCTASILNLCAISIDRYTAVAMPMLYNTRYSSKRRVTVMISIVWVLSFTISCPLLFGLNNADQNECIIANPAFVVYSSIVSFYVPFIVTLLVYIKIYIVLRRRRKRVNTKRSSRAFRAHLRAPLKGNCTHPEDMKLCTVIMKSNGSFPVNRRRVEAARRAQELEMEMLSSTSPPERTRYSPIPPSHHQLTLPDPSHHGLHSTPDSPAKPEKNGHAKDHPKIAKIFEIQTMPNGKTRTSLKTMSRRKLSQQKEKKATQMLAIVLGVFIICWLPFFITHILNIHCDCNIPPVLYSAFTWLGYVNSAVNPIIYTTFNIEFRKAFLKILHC
Proto-oncogene tyrosine-protein kinase Src, sequence (P12931 2-536 limits assumed): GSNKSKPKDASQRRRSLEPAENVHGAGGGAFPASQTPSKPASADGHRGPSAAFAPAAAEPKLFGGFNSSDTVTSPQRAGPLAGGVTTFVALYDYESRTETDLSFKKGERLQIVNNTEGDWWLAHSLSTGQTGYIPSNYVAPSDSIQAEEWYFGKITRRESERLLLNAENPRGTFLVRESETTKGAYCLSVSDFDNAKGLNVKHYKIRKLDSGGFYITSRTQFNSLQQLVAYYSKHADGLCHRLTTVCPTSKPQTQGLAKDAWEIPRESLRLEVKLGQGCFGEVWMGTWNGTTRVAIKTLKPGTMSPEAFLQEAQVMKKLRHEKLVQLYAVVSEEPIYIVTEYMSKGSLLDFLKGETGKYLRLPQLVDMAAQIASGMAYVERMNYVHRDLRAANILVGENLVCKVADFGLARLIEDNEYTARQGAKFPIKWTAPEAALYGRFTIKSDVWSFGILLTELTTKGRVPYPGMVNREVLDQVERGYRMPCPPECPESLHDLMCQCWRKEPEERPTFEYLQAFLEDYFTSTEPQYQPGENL
cAMP-dependent protein kinase catalytic subunit gamma (Homo sapiens), sequence (P22612 2-351 limits assumed): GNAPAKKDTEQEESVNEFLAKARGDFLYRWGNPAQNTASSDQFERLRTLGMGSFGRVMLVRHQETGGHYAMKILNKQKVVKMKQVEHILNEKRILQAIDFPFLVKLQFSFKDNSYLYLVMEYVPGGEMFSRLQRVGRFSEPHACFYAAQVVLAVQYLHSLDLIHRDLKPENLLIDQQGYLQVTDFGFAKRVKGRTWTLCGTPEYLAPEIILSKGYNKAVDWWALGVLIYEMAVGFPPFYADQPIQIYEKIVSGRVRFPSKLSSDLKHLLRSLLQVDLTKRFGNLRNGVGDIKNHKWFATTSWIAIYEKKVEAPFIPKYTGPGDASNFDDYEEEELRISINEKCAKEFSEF

Regarding `CCn1c(-c2nc3cc(C(=O)N4CCCC(N)C4)ccc3n2C)cc2ccccc21` (configuration not stated), the pXC50 at D(2) dopamine receptor is below 4 M.

For the compound `Cc1cc([C@@H](C)Nc2ccccc2C(=O)O)c2nc(N3CCOCC3)cc(=O)n2c1` [AZD-6482], the % of control in assay [1] turned out to be 44%; in assay [2], 100%.

In the case of `Cn1cc(-n2cnc3c(NCc4nc5cc(Cl)c(Cl)cc5[nH]4)nc(N4CCOCC4)nc32)cn1`, in assay [3], the % of inhibition is -38.1%.

As for `CNC(=O)Nc1ccc(-c2nc(N3CC4CCC(C3)O4)c3cnn(C4CCC5(CC4)OCCO5)c3n2)cc1`, the % of control in assay [4] is 67%; on Focal adhesion kinase 1, 78%.

`CC[C@@H]1[C@H](F)C(=O)N[C@@H]1COc1nccc2cc(C(N)=O)c(OC)cc12` [ZIMLOVISERTIB]: the % of inhibition in assay [5] (at 0.01 µM) was 3.8%; in assay [5] (at 0.04 µM), -0.9%; in assay [5] (at 0.2 µM), 5%; in assay [5] (at 1 µM), 8.5%; in assay [5] (at 5 µM), 17%.

On to `O[C@H]1CC[C@H](Nc2ncc3nc(Nc4c(F)cc(F)cc4F)n([C@H]4CCOC4)c3n2)CC1`, for which the % of control in assay [6] was 72%.
